Experimental findings from US8143290B2, “Chemical compounds 572” (AstraZeneca AB, priority 2006, dated 2012) are described below.

For the test, the target named is T1, recombinant human GR (Homo sapiens, UniProt P04150).
T1 construct: purchased Panvera/Invitrogen P2812 (kit P2893)
T1 sequence (P04150 1-777): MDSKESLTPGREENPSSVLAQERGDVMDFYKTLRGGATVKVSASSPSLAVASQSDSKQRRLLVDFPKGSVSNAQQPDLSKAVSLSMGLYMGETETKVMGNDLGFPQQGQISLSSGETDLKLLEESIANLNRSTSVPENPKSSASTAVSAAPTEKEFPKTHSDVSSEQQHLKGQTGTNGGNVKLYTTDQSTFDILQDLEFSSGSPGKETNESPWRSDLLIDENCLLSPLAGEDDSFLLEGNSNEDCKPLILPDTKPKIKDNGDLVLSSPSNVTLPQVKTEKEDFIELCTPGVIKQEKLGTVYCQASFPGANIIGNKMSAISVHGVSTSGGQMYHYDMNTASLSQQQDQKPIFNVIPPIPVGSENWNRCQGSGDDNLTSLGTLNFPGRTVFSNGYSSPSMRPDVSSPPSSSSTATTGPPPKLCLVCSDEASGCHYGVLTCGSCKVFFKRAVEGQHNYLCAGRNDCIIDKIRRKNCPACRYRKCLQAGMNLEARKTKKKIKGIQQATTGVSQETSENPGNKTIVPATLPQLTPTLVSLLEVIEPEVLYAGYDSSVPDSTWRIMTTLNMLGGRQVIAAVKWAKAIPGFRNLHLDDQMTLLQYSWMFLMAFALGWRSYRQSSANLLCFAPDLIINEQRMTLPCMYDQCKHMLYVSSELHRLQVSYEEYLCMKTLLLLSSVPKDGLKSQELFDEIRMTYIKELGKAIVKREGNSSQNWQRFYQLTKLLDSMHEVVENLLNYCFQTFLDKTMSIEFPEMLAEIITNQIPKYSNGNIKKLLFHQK
As to the kind of experiment: Human Glucocorticoid Receptor (GR) Assay, fluorescence polarization. The settings on record: GS Red tracer, incubated 2 h at r.t., XLfit model 205, read-out: GRhuFL_FP_v2 Mean IC50. It counts as binding. The procedure, abridged:
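Fluorescence polarization kit assay: recombinant GR and GS Red fluorescent ligand with Stabilizing Peptide and DTT in potassium phosphate/sodium molybdate/EDTA screening buffer. Plates incubated 2 h in the dark at r.t.; DMSO served as 0% and dexamethasone as 100% control.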
For orientation: Fluorescence polarisation rises when a labelled molecule tumbles more slowly, as on binding a larger partner.
Take `COc1cccc([C@@H](Oc2ccc3c(cnn3-c3ccc(F)cc3)c2)[C@H](C)NC(=O)[C@@H](C)O)c1` [Example 57, (2R)-N-[(1R,2S)-1-[1-(4-fluorophenyl)indazol-5-yl]oxy-1-(3-methoxyphenyl)propan-2-yl]-2-hydroxy-propanamide]: the IC50 (as a rule, the point on the concentration scale where inhibition reaches its midpoint) was found to be 4.1 nM.
Turning to `COCC(=O)N[C@@H](CO)C(Oc1ccc2c(cnn2-c2ccc(F)cc2)c1)c1cccc(F)c1` (mixture of isomers) [Example 113, N-[(1S)-2-(3-Fluorophenyl)-2-{[1-(4-fluorophenyl)-1H-indazol-5-yl]oxy}-1-(hydroxymethyl)ethyl]-2-methoxyacetamide], the IC50 was 24 nM.
For the compound `Cc1ccc(C)c([C@@H](Oc2ccc3c(cnn3-c3ccc(F)cc3)c2)[C@H](C)NC(=O)C(C)(C)F)c1` [Example 244, N-[(1R,2S)-1-(2,5-dimethylphenyl)-1-[1-(4-fluorophenyl)indazol-5-yl]oxy-propan-2-yl]-2-fluoro-2-methyl-propanamide], the 50% inhibitory concentration (IC50) worked out at 8.3 nM.
For `COCC(=O)N[C@@H](C)[C@H](Oc1ccc2c(cnn2-c2ccc(F)cc2)c1)c1cccc(F)c1` [Example 263, N-[(1R,2S)-1-(3-fluorophenyl)-1-[1-(4-fluorophenyl)indazol-5-yl]oxy-propan-2-yl]-2-methoxy-acetamide], the IC50 came to 4.2 nM.
For the compound `C[C@H](NC(=O)C(F)(F)F)[C@@H](COc1ccccc1)Oc1ccc2c(cnn2-c2ccc(F)cc2)c1` (single isomer, unassigned) [Example 68, 2,2,2-Trifluoro-N-[(2S*,3S*)-3-[1-(4-fluorophenyl)indazol-5-yl]oxy-4-phenoxy-butan-2-yl]acetamide], the IC50 was 1.7 nM.
For `C[C@H](NC(=O)CO)[C@H](Oc1ccc2c(cnn2-c2ccc(F)cc2)c1)c1ccc2ccccc2c1` [Example 21, N-[(1R,2S)-1-[1-(4-fluorophenyl)indazol-5-yl]oxy-1-naphthalen-2-yl-propan-2-yl]-2-hydroxy-acetamide], the concentration for half-maximal inhibition (IC50) stood at 3.2 nM.
Take `Cc1cccc([C@@H](Oc2ccc3c(cnn3-c3ccc(F)cc3)c2)[C@H](C)NC(=O)c2ncc(C)s2)c1` [Example 207, N-[(1R,2S)-1-[1-(4-fluorophenyl)indazol-5-yl]oxy-1-(3-methylphenyl)propan-2-yl]-5-methyl-1,3-thiazole-2-carboxamide]: the IC50 is 8.8 nM.
`COc1ccc([C@@H](Oc2ccc3c(cnn3-c3ccc(F)cc3)c2)[C@H](C)NC(=O)C(C)(F)F)cc1F` [Example 231, 2,2-difluoro-N-[(1R,2S)-1-(3-fluoro-4-methoxy-phenyl)-1-[1-(4-fluorophenyl)indazol-5-yl]oxy-propan-2-yl]propanamide]: the IC50 is 5.1 nM.
On to `Cc1ccc(C)c([C@@H](Oc2ccc3c(cnn3-c3ccc(F)cc3)c2)[C@H](C)NC(=O)c2ncc(C)s2)c1` [Example 196, N-[(1R,2S)-1-(2,5-dimethylphenyl)-1-[1-(4-fluorophenyl)indazol-5-yl]oxy-propan-2-yl]-5-methyl-1,3-thiazole-2-carboxamide], for which the IC50 was found to be 6.2 nM.
As to `COc1cccc([C@@H](Oc2ccc3c(cnn3-c3ccc(F)cc3)c2)[C@H](C)N2C(=O)CNC2=O)c1` [Example 271, 3-[(1R,2S)-1-[1-(4-fluorophenyl)indazol-5-yl]oxy-1-(3-methoxyphenyl)propan-2-yl]imidazolidine-2,4-dione], the IC50 amounted to 21 nM.
`Cc1cc([C@@H](Oc2ccc3c(cnn3-c3ccc(F)cc3)c2)[C@H](C)NC(=O)C(C)(C)C)ccc1Cl` [Example 191, N-[(1R,2S)-1-(4-chloro-3-methyl-phenyl)-1-[1-(4-fluorophenyl)indazol-5-yl]oxy-propan-2-yl]-2,2-dimethyl-propanamide]: the 50% inhibitory concentration (IC50) stood at 5.9 nM.
On to `C[C@H](NC(=O)NCc1ccco1)[C@H](Oc1ccc2c(cnn2-c2ccc(F)cc2)c1)c1ccccc1` [Example 105, 1-{(1S,2R)-2-{[1-(4-Fluorophenyl)-1H-indazole-5-yl]oxy}-1-methyl-2-phenylethyl}-3-(2-furylmethyl)urea], for which the half-maximal inhibitory concentration (IC50) came out at 3.2 nM.
With `Cc1ccc([C@@H](Oc2ccc3c(cnn3-c3ccc(F)cc3)c2)[C@H](C)NC(=O)C(C)(C)C)cc1F` [Example 173, N-[(1R,2S)-1-(3-fluoro-4-methyl-phenyl)-1-[1-(4-fluorophenyl)indazol-5-yl]oxy-propan-2-yl]-2,2-dimethyl-propanamide], the IC50 was 4.6 nM.
With `COC(=O)N[C@@H](C)[C@H](Oc1ccc2c(cnn2-c2ccc(F)cc2)c1)c1ccccc1` [Example 4, Methyl ((1S,2R)-2-{[1-(4-fluorophenyl)-1H-indazol-5-yl]oxy}-1-methyl-2-phenylethyl)carbamate] the figure was 5.9 nM; with `COc1cccc([C@@H](Oc2ccc3c(cnn3-c3ccc(F)cc3)c2)[C@H](C)NC(=O)C(N)=O)c1` [Example 76, N-[(1R,2S)-1-[1-(4-Fluorophenyl)indazol-5-yl]oxy-1-(3-methoxyphenyl)propan-2-yl]oxamide], 2.2 nM; with `Cc1cnc(C(=O)N[C@@H](C)[C@H](Oc2ccc3c(cnn3-c3ccc(F)cc3)c2)c2ccc(C(C)(C)C)cc2)s1` [Example 208, N-[(1R,2S)-1-[1-(4-fluorophenyl)indazol-5-yl]oxy-1-(4-tert-butylphenyl)propan-2-yl]-5-methyl-1,3-thiazole-2-carboxamide], 8.2 nM.
For the compound `COc1cccc([C@@H](Oc2ccc3c(cnn3-c3ccc(F)cc3)c2)[C@H](C)NC(=O)CNC(C)=O)c1` [Example 269, N-[[(1R,2S)-1-[1-(4-fluorophenyl)indazol-5-yl]oxy-1-(3-methoxyphenyl)propan-2-yl]carbamoylmethyl]acetamide], the 50% inhibitory concentration (IC50) stood at 12 nM.
In the case of `C[C@H](NC(=O)CO)[C@H](Oc1ccc2c(cnn2-c2ccc(F)cc2)c1)c1ccccc1` [Example 16, N-[(1R,2S)-1-[1-(4-fluorophenyl)indazol-5-yl]oxy-1-phenyl-propan-2-yl]-2-hydroxy-acetamide], the IC50 turned out to be 2.4 nM.
On to `COCC(=O)N[C@@H](C)[C@H](Oc1ccc2c(cnn2-c2ncccn2)c1)c1ccccc1` [Example 120, 2-Methoxy-N-[1-methyl-2-phenyl-2-(1-pyrimidin-2-yl-1H-indazol-5-yloxy)-ethyl]-acetamide], for which the IC50 came out at 210 nM.
Turning to `COc1ccc([C@@H](Oc2ccc3c(cnn3-c3ccc(F)cc3)c2)[C@H](C)NC(=O)C2(C)CC2)c(C)c1` [Example 265, N-[(1R,2S)-1-[1-(4-fluorophenyl)indazol-5-yl]oxy-1-(4-methoxy-2-methyl-phenyl)propan-2-yl]-1-methyl-cyclopropane-1-carboxamide], the concentration for half-maximal inhibition (IC50) worked out at 25 nM.
On to `CC[C@H](NC(=O)CO)[C@H](Oc1ccc2c(cnn2-c2ccc(F)cc2)c1)c1ccccc1` [Example 95, N-((1R,2S)-1-(1-(4-fluorophenyl)-1H-indazol-5-yloxy)-1-phenylbutan-2-yl)-2-hydroxyacetamide], for which the 50% inhibitory concentration (IC50) stood at 3.4 nM.
Regarding `Cc1ccc([C@@H](Oc2ccc3c(cnn3-c3ccc(F)cc3)c2)[C@H](C)NC(=O)C2(C)CC2)cc1F` [Example 213, N-[(1R,2S)-1-(3-fluoro-4-methyl-phenyl)-1-[1-(4-fluorophenyl)indazol-5-yl]oxy-propan-2-yl]-1-methyl-cyclopropane-1-carboxamide], the IC50 is 4.4 nM.
`CC(C)(C)C(=O)NC(C(Oc1ccc2c(cnn2-c2ccc(F)cc2)c1)c1ccccc1)C(F)(F)F` (single isomer, unassigned) [Example 147D1E1, N-(1,1,1-trifluoro-3-(1-(4-fluorophenyl)-1H-indazol-5-yloxy)-3-phenylpropan-2-yl)pivalamide]: the IC50 is 97 nM.
Regarding `CC(C)C(=O)N[C@@H](C)[C@H](Oc1ccc2c(cnn2-c2ccc(F)cc2)c1)c1ccccc1` [Example 37, N-[(1R,2S)-1-[1-(4-fluorophenyl)indazol-5-yl]oxy-1-phenyl-propan-2-yl]-2-methyl-propanamide], the half-inhibitory concentration (IC50) turned out to be 2.4 nM.
Regarding `Cc1cnc(C(=O)N[C@@H](C)[C@H](Oc2ccc3c(cnn3-c3ccc(F)cc3)c2)c2ccc(F)c(F)c2)s1` [Example 193, N-[(1R,2S)-1-(3,4-difluorophenyl)-1-[1-(4-fluorophenyl)indazol-5-yl]oxy-propan-2-yl]-5-methyl-1,3-thiazole-2-carboxamide], the IC50 came to 6.5 nM.
In the case of `C[C@H](NC(=O)C(F)(F)F)[C@H](Oc1cc2cnn(-c3ccc(F)cc3)c2cc1Cl)c1ccc(F)cc1` (racemic) [Example 99, N-[(1RS,2SR)-1-[6-chloro-1-(4-fluorophenyl)indazol-5-yl]oxy-1-(4-fluorophenyl)propan-2-yl]-2,2,2-trifluoro-acetamide], the IC50 is 3.8 nM.
Consider `Cc1cccc([C@@H](Oc2ccc3c(cnn3-c3ccc(F)cc3)c2)[C@H](C)NC(=O)C(C)(F)F)c1` [Example 239, 2,2-difluoro-N-[(1R,2S)-1-[1-(4-fluorophenyl)indazol-5-yl]oxy-1-(3-methylphenyl)propan-2-yl]propanamide], for which the IC50 amounted to 9 nM.
